From patent US20200392107A1, “CYCLIC AMINE DERIVATIVE AND MEDICAL USE THEREOF” (Toray Industries, Inc., priority 2018, published 2020)

What was measured:
[1] = target: T1, RORγ-LBD (GST-fused ligand-binding domain of RORγ) / coactivator TRAP220/DRIP-2 (Homo sapiens, UniProt P51449); experiment: Inhibitory effect on RORγ-coactivator binding (LanthaScreen TR-FRET RORγ Coactivator Assay); format: biochemical; details: at 33 μmol/L of the test compound; read-out: RORγ-coactivator binding inhibition rate (%)
T1 construct: purchased Invitrogen
T1 sequence (P51449 269-508 limits assumed): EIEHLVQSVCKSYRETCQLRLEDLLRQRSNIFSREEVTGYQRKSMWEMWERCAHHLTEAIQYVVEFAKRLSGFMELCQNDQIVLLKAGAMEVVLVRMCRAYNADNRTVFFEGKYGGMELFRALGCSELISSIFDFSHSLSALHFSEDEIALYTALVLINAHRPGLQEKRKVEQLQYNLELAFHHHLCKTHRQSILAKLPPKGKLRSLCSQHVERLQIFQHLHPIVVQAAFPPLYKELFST
Description: The inhibitory effect of the cyclic amine derivative (I) or a pharmacologically acceptable salt thereof on the binding between a ligand-binding domain of RORγ (hereinafter referred to as RORγ-LBD) and a coactivator was evaluated using Invitrogen's LanthaScreen™ TR-FRET Retinoid-Related Orphan Receptor (ROR) gamma Coactivator Assay kit utilizing time-resolved fluorescence energy transfer (TR-FRET).
A test compound was dissolved in DMSO and diluted with TR-FRET Coregulator Buffer D (Invitrogen) containing 5 mmol/L of DTT to have a final DMSO concentration of 1% before use. To each well of a 384-well black plate (Corning Inc.), 4 nmol/L of GST-fused RORγ-LBD (Invitrogen) diluted with the buffer mentioned above and the test compound were added. A well without addition of the test compound and without addition of GST-fused RORγ-LBD (background) and a well without addition of the test compound and with addition of GST-fused RORγ-LBD (control) were prepared. Next, 150 nmol/L of fluorescein-labeled TRAP220/DRIP-2 (Invitrogen) diluted with the buffer mentioned above and 32 nmol/L of terbium-labeled anti-GST antibody (Invitrogen) were added to each well. After incubating the plate at room temperature for 16 to 24 hours, the fluorescence at 495 nm and 520 nm when excited at 320 nm was measured for each well and the ratio (fluorescence value at 520 nm/fluorescence value at 495 nm) was calculated.
The fold change with addition of the test compound (ratio with addition of the test compound/ratio of the background), the fold change of the control (ratio of the control/ratio of the background), and the fold change of the background (ratio of the background/ratio of the background) were calculated, and then the inhibition rate of binding between RORγ-LBD and a coactivator (hereinafter referred to as RORγ-coactivator binding inhibition rate) (%) was calculated from Formula (1):
RORγ-coactivator binding inhibition rate (%)=(1−((Fold change with addition of the test compound)−(Fold change of the background))/((Fold change of the control)−(Fold change of the background)))×100 (1).

[2] = test system: mouse alopecia areata model; experiment: Mouse alopecia areata model; format: in vivo; details: 10 mg/kg orally once daily for 42 days, Day 49 to Day 90; C3H/HeJ mice
Description: The effect of the cyclic amine derivative (I) or a pharmacologically acceptable salt thereof in a mouse alopecia areata model was evaluated using increase in the hair loss score as an index of worsening of symptoms. The mouse alopecia areata model was prepared by a partially modified method by Wang et al. (Journal of Investigative Dermatology, 2015, vol. 135, p. 2530-2532).
Female C3H/HeJ mice (CLEA Japan, Inc.) with spontaneous hair loss in 70% or more of the body surface were used as donor mice. The donor mice were euthanized by cervical dislocation, and then the groin, axilla, and auricular lymph nodes were aseptically removed. […]
On Day 49, photographs of the back and the abdomen of the mice were taken under isoflurane anesthesia. The status of hair loss was evaluated by a partially modified method by Alli et al. (Journal of Immunology, 2012, vol. 188, p. 477-486). In other words, the ratio of the area of hair loss site to the body surface area was scored in accordance with the criteria mentioned in Table 4, and regarded as the hair loss score. Specifically, the hair loss score was determined based on the numerical value of the ratio calculated from Formula (4): […]
Grouping was performed using the mouse hair loss score calculated on Day 49 as an index (the hair loss score on Day 49 (mean±standard error): 3.6±0.66). […]

| inhibition at 33 µM [1] [%] | Compound | increase in the hair loss score (Day 91) [2] |
| --- | --- | --- |
| 96.8 | CC(=O)N1CCCC[C@@H]1C(=O)Nc1cc(Cl)c2c(c1)CCN2C[C@H]1CC[C@H](C(F)(F)F)CC1 [Example 9, (R)-1-acetyl-N-(7-chloro-1-((trans-4-(trifluoromethyl)cyclo-hexyl)methyl)indolin-5-yl)piperidine-2-carboxamide] | – |
| 96.7 | CC(=O)N1CCCC[C@@H]1C(=O)Nc1cc(Cl)c2c(c1)CCN2Cc1ccc(C(F)(F)F)cc1 [Example 4, (R)-1-acetyl-N-(7-chloro-1-(4-(trifluoromethyl)benzyl)indolin-5-yl)piperidine-2-carboxamide] | suppressed |
| 96.9 | CC(=O)N1CCCC[C@@H]1C(=O)Nc1cc(Cl)c2c(c1)CCCN2Cc1ccc(C(F)(F)F)cc1 [Example 1, (R)-1-acetyl-N-(8-chloro-1-(4-(trifluoromethyl)benzyl)-1,2,3,4-tetrahydroquinolin-6-yl)piperidine-2-carboxamide] | – |
